From US12421211B2, “Heterocyclic compounds” (Hoffmann-La Roche Inc., priority 2021, dated 2025)
Structures can show the parent of a compound that is named as a salt.

Test system: Acinetobacter baumannii ATCC17961
Assay: Antimicrobial susceptibility testing: 90% growth inhibitory concentration (IC90) determination
Assay type: cell-based
Conditions: Acinetobacter baumannii, ATCC17961, 16 h, 90% growth inhibitory concentration, Acinetobacter baumannii ATCC17961, Iso-Sensitest broth, OD 600 nm over 16 h; read-out: ATCC 17961 IC90
Outline: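 A. baumannii ATCC17961 at ~5×10^5 CFU/ml in Iso-Sensitest broth exposed to 10-point twofold dilutions (e.g. 50–0.097 μM final), 35±2° C. OD600 read every 20 minutes over 16h; IC50 and IC90 derived from inhibition during logarithmic growth.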

Point of comparison: Cc1nn(CC(=O)Nc2nccs2)cc1-c1ccc(-c2cnc(C(=O)Nc3ccc(C(=O)N4CCN(C(=O)C5CC[N+](C)(C)CC5)CC4)c(Cl)c3)n2C)c(F)c1F [Example G10, N-[3-chloro-4-[4-(1,1-dimethylpiperidin-1-ium-4-carbonyl)piperazine-1-carbonyl]phenyl]-5-[2,3-difluoro-4-[3-methyl-1-[2-oxo-2-(thiazol-2-ylamino)ethyl]pyrazol-4-yl]phenyl]-1-methyl-imidazole-2-carboxamide; formate], IC90 120 nM. Against it:
- COCCn1cc(-c2ccc(-c3cnc(C(=O)Nc4ccc(C(=O)N5CCN(C(=O)C[N+]6(C)CCC(N)C6)CC5)c(Cl)c4)n3C)c(F)c2F)c(C)n1 (centres unmarked) [Example C3, N-[4-[4-[2-(3-amino-1-methyl-pyrrolidin-1-ium-1-yl)acetyl]piperazine-1-carbonyl]-3-chloro-phenyl]-5-[2,3-difluoro-4-[1-(2-methoxyethyl)-3-methyl-pyrazol-4-yl]phenyl]-1-methyl-imidazole-2-carboxamide; formic acid; formate] — within 1.5-fold, 100 nM
- Cn1c(-c2ccc(-c3c[nH]nc3-c3ccccc3)c(F)c2F)cnc1C(=O)Nc1ccc(C(=O)N2CCN(C(=O)C3CC[N+](C)(C)CC3)CC2)c(Cl)c1 [Example F27, N-[3-chloro-4-[4-(1,1-dimethylpiperidin-1-ium-4-carbonyl)piperazine-1-carbonyl]phenyl]-5-[2,3-difluoro-4-(3-phenyl-1H-pyrazol-4-yl)phenyl]-1-methyl-imidazole-2-carboxamide; formate] — 3.3-fold higher, 400 nM
- Cc1nn(CC(=O)Nc2cnn(C)c2)cc1-c1ccc(-c2cnc(C(=O)Nc3ccc(C(=O)N4CCN(C(=O)C5CC[N+](C)(C)CC5)CC4)c(Cl)c3)n2C)c(F)c1F [Example G12, N-[3-chloro-4-[4-(1,1-dimethylpiperidin-1-ium-4-carbonyl)piperazine-1-carbonyl]phenyl]-5-[2,3-difluoro-4-[3-methyl-1-[2-[(1-methylpyrazol-4-yl)amino]-2-oxo-ethyl]pyrazol-4-yl]phenyl]-1-methyl-imidazole-2-carboxamide; formate] — 3.8-fold higher, 450 nM
- Cn1c(-c2ccc(-c3cnn(CCN4CCOCC4)c3C(F)(F)F)c(F)c2F)cnc1C(=O)Nc1ccc(C(=O)N2CCN(C(=O)C3CC[N+](C)(C)CC3)CC2)c(Cl)c1 [Example F37, N-[3-chloro-4-[4-(1,1-dimethylpiperidin-1-ium-4-carbonyl)piperazine-1-carbonyl]phenyl]-5-[2,3-difluoro-4-[1-(2-morpholinoethyl)-5-(trifluoromethyl)pyrazol-4-yl]phenyl]-1-methyl-imidazole-2-carboxamide; formate] — 5.8-fold higher, 690 nM
- Cc1c(-c2ccc(-c3cnc(C(=O)Nc4ccc(C(=O)N5CCN(C(=O)C6CC[N+](C)(C)CC6)CC5)c(Cl)c4)n3C)c(F)c2F)cnn1CC(=O)Nc1cccnn1 [Example G25, N-[3-chloro-4-[4-(1,1-dimethylpiperidin-1-ium-4-carbonyl)piperazine-1-carbonyl]phenyl]-5-[2,3-difluoro-4-[5-methyl-1-[2-oxo-2-(pyridazin-3-ylamino)ethyl]pyrazol-4-yl]phenyl]-1-methyl-imidazole-2-carboxamide; formate] — 8.3-fold higher, 1000 nM
- Cc1nn(CC(=O)Nc2ccc[n+](C)c2)cc1-c1ccc(-c2cnc(C(=O)Nc3ccc(C(=O)N4CCN(C(=O)C5CC[N+](C)(C)CC5)CC4)c(Cl)c3)n2C)c(F)c1F [Example G15, N-[3-chloro-4-[4-(1,1-dimethylpiperidin-1-ium-4-carbonyl)piperazine-1-carbonyl]phenyl]-5-[2,3-difluoro-4-[3-methyl-1-[2-[(1-methylpyridin-1-ium-3-yl)amino]-2-oxo-ethyl]pyrazol-4-yl]phenyl]-1-methyl-imidazole-2-carboxamide; diformate] — 2.5-fold higher, 300 nM
- COCCn1ncc(-c2ccc(-c3cnc(C(=O)Nc4ccc(C(=O)N5CCN(C(=O)C[N+]6(C)CCCC6)CC5)c(Cl)c4)n3C)c(F)c2F)c1C [Example C14, N-[3-chloro-4-[4-[2-(1-methylpyrrolidin-1-ium-1-yl)acetyl]piperazine-1-carbonyl]phenyl]-5-[2,3-difluoro-4-[1-(2-methoxyethyl)-5-methyl-pyrazol-4-yl]phenyl]-1-methyl-imidazole-2-carboxamide; 2,2,2-trifluoroacetate] — within 1.5-fold, 82 nM
- Cc1nn(CC(=O)NC(C)C)cc1-c1ccc(-c2cnc(C(=O)Nc3ccc(C(=O)N4CCN(C(=O)C5CC[N+](C)(C)CC5)CC4)c(Cl)c3)n2C)c(F)c1F [Example G1, N-[3-chloro-4-[4-(1,1-dimethylpiperidin-1-ium-4-carbonyl)piperazine-1-carbonyl]phenyl]-5-[2,3-difluoro-4-[1-[2-(isopropylamino)-2-oxo-ethyl]-3-methyl-pyrazol-4-yl]phenyl]-1-methyl-imidazole-2-carboxamide; formate] — 2.4-fold higher, 290 nM
- COCCn1ncc(-c2ccc(-c3cnc(C(=O)Nc4ccc(C(=O)N5CCN(C(=O)C6CCNCC6)CC5)c(Cl)c4)n3C)c(F)c2F)c1COC [Example E13, N-[3-chloro-4-[4-(piperidine-4-carbonyl)piperazine-1-carbonyl]phenyl]-5-[2,3-difluoro-4-[1-(2-methoxyethyl)-5-(methoxymethyl)pyrazol-4-yl]phenyl]-1-methyl-imidazole-2-carboxamide; formic acid] — 3.2-fold higher, 380 nM
- COCCn1ncc(-c2ccc(-c3cnc(C(=O)Nc4ccc(C(=O)NCC5CCNCC5)c(Cl)c4)n3C)c(F)c2F)c1C [Example E10, N-[3-chloro-4-(4-piperidylmethyl-carbamoyl)phenyl]-5-[2,3-difluoro-4-[1-(2-methoxyethyl)-5-methyl-pyrazol-4-yl]phenyl]-1-methyl-imidazole-2-carboxamide; 2,2,2-trifluoroacetic acid] — within 1.5-fold, 170 nM
- Cc1nn(CC(=O)N2CCCCC2)cc1-c1ccc(-c2cnc(C(=O)Nc3ccc(C(=O)N4CCN(C(=O)C5CC[N+](C)(C)CC5)CC4)c(Cl)c3)n2C)c(F)c1F [Example G29, N-[3-chloro-4-[4-(1,1-dimethylpiperidin-1-ium-4-carbonyl)piperazine-1-carbonyl]phenyl]-5-[2,3-difluoro-4-[3-methyl-1-[2-oxo-2-(1-piperidyl)ethyl]pyrazol-4-yl]phenyl]-1-methyl-imidazole-2-carboxamide; formate] — 2.8-fold higher, 330 nM
- Cc1nn(CC(=O)Nc2ccc(C#N)nc2)cc1-c1ccc(-c2cnc(C(=O)Nc3ccc(C(=O)N4CCN(C(=O)C5CC[N+](C)(C)CC5)CC4)c(Cl)c3)n2C)c(F)c1F [Example G34, N-[3-chloro-4-[4-(1,1-dimethylpiperidin-1-ium-4-carbonyl)piperazine-1-carbonyl]phenyl]-5-[4-[1-[2-[(6-cyano-3-pyridyl)amino]-2-oxo-ethyl]-3-methyl-pyrazol-4-yl]-2,3-difluoro-phenyl]-1-methyl-imidazole-2-carboxamide; formate] — 1.8-fold lower, 68 nM

Same assay, conditions: Acinetobacter baumannii, ATCC17961, 16 h, read-out: ATCC 17961 IC90

COCCn1ncc(-c2ccc(-c3cnc(C(=O)Nc4ccc(C(=O)N[C@H]5[C@@H]6CN(C(=O)C7CC[N+](CC(=O)O)(CC8CNC8)CC7)C[C@@H]65)c(Cl)c4)n3C)c(F)c2F)c1C (stereo partly drawn) [Example O2, 2-[1-(azetidin-3-ylmethyl)-4-[(1S,5R) 6-[[2-chloro-4-[[5-[2,3-difluoro-4-[1-(2-methoxyethyl)-5-methyl-pyrazol-4-yl]phenyl]-1-methyl-imidazole-2-carbonyl]amino]benzoyl]amino]-3-azabicyclo[3.1.0]hexane-3-carbonyl]piperidin-1-ium-1-yl]acetic acid formate] showed an IC90 of 362 nM.
